The record followed here is patent US8871680B2, “Herbicidal compositions comprising 4-amino-3-chloro-5-fluoro-6-(4-chloro-2-fluoro-3-methoxyphenyl) pyridine-2-carboxylic acid or a derivative thereof and a di-methoxy-pyrimidine and derivatives thereof” (Dow AgroSciences LLC, priority 2012, dated 2014).

Molecules are shown by their SMILES.

One test concerns ECHOR. Briefly: In-water applied weed control, transplanted paddy rice (greenhouse). The test is classed as in vivo, Echinochloa oryzoides (Ard.) Fritsch. Particulars: 40 gai/ha. The method, then: (§1) Weed seeds or nutlets of the desired test plant species were planted in puddled soil (mud) prepared by mixing a shredded, non-sterilized mineral soil (50.5 percent silt, 25.5 percent clay, and 24 percent sand, with a pH of about 7.6 and an organic matter content of about 2.9 percent) and water at a 1:1 volumetric ratio. The prepared mud was dispensed in 365 mL aliquots into 16-ounce (oz.) non-perforated plastic pots with a surface area of 86.59 square centimeters (cm^2) leaving a headspace of 3 centimeters (cm) in each pot. Mud was allowed to dry overnight prior to planting or transplanting. Rice seeds were planted in Sun Gro MetroMix® 306 planting mixture, which typically has a pH of 6.0 to 6.8 and an organic matter content of about 30 percent, in plastic plug trays. Seedlings at the second or third leaf stage of growth were transplanted into 860 mL of mud contained in 32-oz. non-perforated plastic pots with a surface area of 86.59 cm^2 4 days prior to herbicide application. The paddy was created by filling the headspace of the pots with 2.5 to 3 cm of water. When required to ensure good germination and healthy plants, a fungicide treatment and/or other chemical or physical treatment was applied. The plants were grown for 4-22 days in a greenhouse with an approximate 14 hr photoperiod which was maintained at about 29′C during the day and 26° C. during the night. Nutrients were added as Osmocote® (19:6:12, N:P:K+minor nutrients) at 2 g per 16-oz. pot and 4 g per 32-oz. pot. Water was added on a regular basis to maintain the paddy flood, and supplemental lighting was provided with overhead metal halide 1000-Watt lamps as necessary. The plants were employed for testing when they reached the first through fourth true leaf stage.
(§2) Treatments consisted of the acid or esters of 4-amino-3-chloro-5-fluoro-6-(4-chloro-2-fluoro-3-methoxy-phenyl)pyridine-2-carboxylic acid (compound A) each formulated as an SC and various herbicidal components alone and in combination. Forms of compound A were applied on an acid equivalent basis.
(§3) Other herbicidal components were applied on an active ingredient basis and included the dimethoxy-pyrimidine acid acetolactate synthase (ALS)-inhibiting herbicides bispyribac-sodium formulated as Regiment® 80 WP, pyriminobac-methyl formulated as Hie Clean®, and pyriftalid (technical grade material).
(§4) Treatment requirements for each compound or herbicidal component were calculated based upon the rates being tested, the concentration of active ingredient or acid equivalent in the formulation, an application volume of 2 mL per component per pot, and an application area of 86.59 cm^2 per pot.
(§5) For formulated compounds, a measured amount was placed in an individual 100 or 200 mL glass vial and was dissolved in a volume of 1.25% (v/v) Agri-Dex® crop oil concentrate to obtain application solutions.
(§6) For technical grade compounds, a weighed amount was placed in an individual 100 to 200 mL glass vial and was dissolved in a volume of acetone to obtain concentrated stock solutions. […] The concentrated stock solutions obtained were diluted with an equivalent volume of an aqueous mixture containing 2.5% (v/v) crop oil concentrate so that the final application solutions contained 1.25% (v/v) crop oil concentrate.
(§7) Applications were made by injecting with a pipetter appropriate amounts of the application solutions, individually and sequentially, into the aqueous layer of the paddy.
(§8) Control plants were treated in the same manner with the solvent blank. […]

In test [1] the test system is LEFCH. Described as above. The class given is in vivo, Leptochloa chinensis (L.) Nees. Particulars: 40 gai/ha. On the procedure: as §1, §2, §3, §4, §5, §6, §7, §8
The subject of test [2] is ECHCG. The test is described as above. The test is classed as in vivo, Echinochloa crusgalli (L.) Beauv. On the procedure: as §1, §2, §3, §4, §5, §6, §7
(§9) Control plants were treated in the same manner with the solvent blank. Applications were made so that all treated plant material received the same concentrations of acetone and crop oil concentrate.
(§10) The treated plants and control plants were placed in a greenhouse as described above and water was added as needed to maintain a paddy flood. […]

The test system of a further test is CYPRO. The test is described as above. The class given is in vivo, Cyperus rotundus L. On the procedure: as §1, §2, §3, §4, §5, §6, §7, §9, §10
The next test relates to SCPMA. The test is described as above. The test is classed as in vivo, Bolboschoenus maritimus (L.) Palla. On the procedure:
as §1, §2, §3, §4, §5, §6, §7, §9, §10

Test [3] has as its system LEFCH. The experiment in a line: Postemergence foliar-applied weed control, direct seeded rice (greenhouse). The test is classed as in vivo, Leptochloa chinensis (L.) Nees. The text has this: (§11) Seeds or nutlets of the desired test plant species were planted in a soil matrix prepared by mixing a loam or sandy loam soil (e.g., 28.6 percent silt, 18.8 percent clay, and 52.6 percent sand, with a pH of about 5.8 and an organic matter content of about 1.8 percent) and calcareous grit in an 80 to 20 ratio. The soil matrix was contained in plastic pots with a volume of 1 quart and a surface area of 83.6 square centimeters (cm^2). When required to ensure good germination and healthy plants, a fungicide treatment and/or other chemical or physical treatment was applied. The plants were grown for 8-22 days in a greenhouse with an approximate 14 hr photoperiod which was maintained at about 29° C. during the day and 26° C. during the night. Nutrients (Peters Excel® 15-5-15 5-Ca 2-Mg and iron chelate) were applied in the irrigation solution as needed and water was added on a regular basis. Supplemental lighting was provided with overhead metal halide 1000-Watt lamps as necessary. The plants were employed for testing when they reached the first through fourth true leaf stage.
(§12) Treatments consisted of the acid or esters of 4-amino-3-chloro-5-fluoro-6-(4-chloro-2-fluoro-3-methoxy-phenyl)pyridine-2-carboxylic acid (Compound A), each formulated as an SC (suspension concentrate), and various herbicidal components alone and in combination. Forms of compound A were applied on an acid equivalent basis.
(§13) Other herbicidal components were applied on an active ingredient basis and included the dimethoxy-pyrimidine acid acetolactate synthase (ALS)-inhibiting herbicides bispyribac-sodium formulated as Regiment® 80WP, pyribenzoxim (technical grade material), pyriminobac-methyl formulated as Hie-Clean® 1.2% GR dissolved in water, and pyriftalid (technical grade material).
(§14) Treatment requirements were calculated based upon the rates being tested, the concentration of active ingredient or acid equivalent in the formulation, and a 12 mL application volume at a rate of 187 L/ha.
(§15) For treatments comprised of formulated compounds, measured amounts of compounds were placed individually in 25 mL glass vials and diluted in a volume of 1.25% (v/v) Agri-Dex® crop oil concentrated to obtain 12× stock solutions. […] Application solutions were prepared by adding an appropriate amount of each stock solution (e.g., 1 mL) and diluted to the appropriate final concentrations with the addition of 10 mL of an aqueous mixture of 1.25% (v/v) crop oil concentrate so that the final spray solutions contained 1.25+/−0.005% (v/v) crop oil concentrate.
(§16) For treatments comprised of technical compounds, weighed amounts can be placed individually in 25 mL glass vials and dissolved in a volume of 97:3 v/v acetone/DMSO to obtain 12× stock solutions. […] Application solutions can be prepared by adding an appropriate amount of each stock solution (e.g., 1 mL) and diluted to the appropriate final concentrations with the addition of 10 mL of an aqueous mixture of 1.5% (v/v) crop oil concentrate so that the final spray solutions contain 1.25% (v/v) crop oil concentrate. When technical materials are used, the concentrated stock solutions can be added to the spray solutions so that the final acetone and DMSO concentrations of the application solutions are 16.2% and 0.5%, respectively.
(§17) For treatments comprised of formulated and technical compounds, weighed amounts of the technical materials were placed individually in 25 mL glass vials and dissolved in a volume of 97:3 v/v acetone/DMSO to obtain 12× stock solutions, and measured amounts of the formulated compounds were placed individually in 25 mL glass vials and diluted in a volume of 1.5% (v/v) crop oil concentrate or water to obtain 12× stock solutions. […]

Another test relates to IPOHE. The description is as above. The class given is in vivo, Ipomoea hederacea Jacq.
Source text: as §11, §12, §13, §14, §15, §16, §17

Test [4] relates to ECHCG. The test is described as above. The class given is in vivo, Echinochloa crusgalli (L.) Beauv.
Source text: as §11, with “stage. […]” for “stage.”
as §14
For treatments comprised of formulated compounds, measured amounts of compounds were placed individually in 25 mL glass vials and diluted in a volume of 1.25% (v/v) Agri-Dex® crop oil concentrated to obtain 12× stock solutions. […]
as §17

The next test has as its system FIMMI. The experiment in a line: In-water applied weed control, transplanted paddy rice (greenhouse). The test is classed as in vivo, Fimbristylis miliacea (L.) Vahl. Particulars: 4.38 gae/ha. The method, then:
as §1, §2, §3, §4, §5, §6, §7, §9, §10

Turning to `COc1cc(OC)nc(Oc2cccc(Oc3nc(OC)cc(OC)n3)c2C(=O)[O-])n1.[Na+]` [Bispyribac-Sodium, sodium 2,6-bis[(4,6-dimethoxy-2-pyrimidinyl)oxy]benzoate, reference compound], the “Visual Weed Control (%)-20 DAA ECHOR Obs” value in the test with ECHOR (Table 7) and in the test on ECHOR (Table 9) was 30% throughout. Besides, the figures for the “Visual Weed Control (%)-20 DAA LEFCH Obs” value with LEFCH [1], in the test with LEFCH [3] (7 gai/ha) and in the test on LEFCH [3] (14 gai/ha) were 28%, 0% and 0%, respectively. The figures for the “Visual Weed Control (%) - 20 DAA ECHCG Obs” value in the test on ECHCG [2] (10 gai/ha), with ECHCG [2] (20 gai/ha) and with ECHCG [2] (40 gai/ha) were 20%, 35% and 30%, respectively. For the same compound, the “Visual Weed Control (%)-20 DAA CYPRO Obs” value in the test on CYPRO (10 gai/ha) and in the test with CYPRO (20 gai/ha) was 0% each time. For the same compound, the “Visual Weed Control (%)-20 DAA SCPMA Obs” value came to 38% with SCPMA (40 gai/ha, Table 7); 38% in the test on SCPMA (40 gai/ha, Table 8); 38% in the test with SCPMA (40 gai/ha, Table 9).

For `COc1c(Cl)ccc(-c2nc(C(=O)OCc3ccccc3)c(Cl)c(N)c2F)c1F` [Compound A Benzyl Ester], the figures for the “Visual Weed Control (%)-24 DAA IPOHE Obs” value in the test on IPOHE (4.38 gae/ha), with IPOHE (8.75 gae/ha) and in the test with IPOHE (17.5 gae/ha) were 10%, 15% and 30%, respectively. Also, the “Visual Weed Control (%)-21 DAA IPOHE Obs” value in the test on IPOHE (17.5 gae/ha) was determined as 43%. Moreover, the “Visual Weed Control (%) - 20 DAA ECHCG Obs” value in the test with ECHCG [4] (8 gae/ha) is recorded as 75%; in the test on ECHCG [4] (16 gae/ha), 85%. The “Visual Weed Control (%)-20 DAA CYPRO Obs” value in the test on CYPRO (4.38 gae/ha) is recorded as 50%. The “Visual Weed Control (%)-21 DAA CYPRO Obs” value with CYPRO (4.38 gae/ha, Table 11) worked out at 0%; with CYPRO (4.38 gae/ha, Table 13) it was 30%; in the test with CYPRO (8.75 gae/ha, Table 11) it was 20%; with CYPRO (8.75 gae/ha, Table 13), 60%; in the test on CYPRO (17.5 gae/ha) it was 10%. Moreover, the “Visual Weed Control (%)-21 DAA SCPMA Obs” value in the test with SCPMA (4.38 gae/ha) and with SCPMA (8.75 gae/ha) was 0% each time. Moreover, the “Visual Weed Control (%)-20 DAA SCPMA Obs” value with SCPMA (35 gae/ha) was 0%; in the test on SCPMA (35 gae/ha, Table 11) it was 0%; in the test on SCPMA (70 gae/ha) it was 0%. The “Visual Weed Control (%)-24 DAA LEFCH Obs” value in the test on LEFCH [3] (4.38 gae/ha) worked out at 0%; with LEFCH [3] (8.75 gae/ha), 0%; in the test on LEFCH [3] (17.5 gae/ha) it was 10%. For the same compound, the “Visual Weed Control (%)-20 DAA LEFCH Obs” value in the test with LEFCH [3] (8.75 gae/ha) was 10%; in the test with LEFCH [3] (17.5 gae/ha), 20%. Besides, in the test on LEFCH [3] (17.5 gae/ha), the “Visual Weed Control (%)-22 DAA LEFCH Obs” value was 25%. In the test on FIMMI, the “Visual Weed Control (%)-21 DAA FIMMI Obs” value is 20%.
